Test results: the METLIN SMRT retention time set (Domingo-Almenara et al. 2019)

Test: gradient 5% acetonitrile 3 min, to 50% in 2 min, to 85% in 15 min, held 3 min, 100 µL/min
Settings: column: Zorbax Extend-C18 2.1 x 50 mm; eluents: water / acetonitrile, 0.1% formic acid
Procedure, shortened: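 Pure standards were analyzed in mixtures of ~100 molecules using HPLC coupled to a quadrupole time-of-flight mass spectrometer, in both positive and negative ionization mode. Separation used a Zorbax Extend-C18 column (2.1 × 50 mm, 1.8 μm) at 100 μL/min, with water and acetonitrile each containing 0.1% formic acid. Dead and dwell volumes were 40 μL and 900 μL, and data were collected over 3 months. Retention time was read from computationally picked adduct peaks, each inspected manually.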

| SMILES | RP-LC retention time [s] |
| --- | --- |
| CC1(C)CC(=O)c2cn(-c3ccccc3)c(=O)c(C(=O)NC3CCCC3)c2C1 | 932 |
| Cc1ccc(Nc2c(-c3cccc(Cl)c3)nc3ccccn23)cc1 | 780 |
| Cc1cc(Cl)ccc1OCc1nc(-c2cccc(-c3ccn[nH]3)c2)no1 | 1090 |
| O=C(CCCc1nnc2c(=O)n(-c3ccc(Cl)cc3)ccn12)N1CCN(c2ccccn2)CC1 | 595 |
| Cc1sc(NC(=O)C2CCCCC2)nc1-c1ccc2c(c1)NC(=O)CO2 | 921 |
| O=C1NCCN2CC3(CCN(S(=O)(=O)c4cccc5cccnc45)CC3)CC12 (stereo not drawn) | 581 |
| CCCc1cc(N2CCN(C(=O)c3ccco3)CC2)nc2nnc(C)n12 | 868 |
| COc1ccc(NS(=O)(=O)c2cc3n(c2)CCCN(C)C3=O)cc1 | 650 |
| COc1ccc(N2CCN(c3cc(SCC(=O)Nc4cc(Cl)ccc4C)ncn3)CC2)cc1 | 1130 |
| COc1ccc(CCn2nnnc2C2(c3ccc(C)cc3)CC2)cc1 | 1150 |
| COc1ccc(OC)c(Nc2c(-c3ccc(Cl)cc3)nc3cnccn23)c1 | 968 |
| CCNc1cc(N2CCC(CCC(=O)Nc3ccc4c(c3)OCCO4)CC2)ncn1 | 572 |
| Cc1ccc(NC(=O)Cn2c(=O)n(-c3ccccc3)c(=O)c3c2cc(C)n3C)cc1 | 827 |
| Cc1ccccc1NC(=O)C1C(=O)NC2(C)CC1c1ccccc1O2 (stereo not drawn) | 869 |
| O=C(CC1CCN(C(=O)c2ccc3oc(C4CC4)nc3c2)CC1)NCc1ccco1 | 693 |
| O=C(NCc1ccc2c(c1)OCO2)c1nnc(-c2ccc(S(=O)(=O)N3CCCC3)cc2)o1 | 854 |
| Cc1nc(C2CCOCC2)n(C2CCN(S(=O)(=O)c3ccc(F)cc3F)C2)n1 (stereo not drawn) | 712 |
| CC(=O)N1C[C@@H]2CCCN3CCC[C@@H]([C@H]23)[C@H]1CCCC(=O)N(C)CCc1c(C)nn(C)c1C | 556 |
| CC(=O)Nc1ncncc1N1CCC(C(=O)NCc2cccc(C(F)(F)F)c2)CC1 | 698 |

| SMILES | RP-LC retention time [s] |
| --- | --- |
| O=C(NC1CCN(c2cc(-c3ccc(F)cc3)[nH]n2)CC1)C1COc2ccccc2O1 (stereo not drawn) | 824 |
| CCCCN(C)C(=O)Cn1c(=O)c(S(=O)(=O)c2ccccc2)cc2cc(C)ccc21 | 953 |
| N#Cc1cccc(-c2nc(-c3ccc4c(c3)nnn4CCN3CCCCC3)no2)c1 | 678 |
| COc1ccccc1Oc1ccc(S(=O)(=O)Nc2cccc(C(C)=O)c2)cc1 | 887 |
| COCC1CN(S(=O)(=O)c2cc(F)ccc2C)CC12CCNCC2 (stereo not drawn) | 641 |
| CCNc1cc(N2CCC(CCC(=O)NCC3CC3)CC2)ncn1 | 588 |
| CCn1c(=O)c2c(cc(C)n2C)n(CC(=O)Nc2ccc(C)cc2Cl)c1=O | 871 |
| CSc1ccc(NC(=O)NC2CCN(c3cc(C)cc(C)c3)C2=O)cc1 (stereo not drawn) | 916 |
| Cc1ccc(-c2noc(Cn3cnc4c(cnn4-c4ccc(Br)cc4)c3=O)n2)cc1 | 1250 |
| Cc1nnc(N2CCCC(C(=O)NCc3ccccc3)C2)c2nn(-c3ccc(Cl)cc3)c(C)c12 (stereo not drawn) | 765 |
| Cc1cnc(C(=O)NC2C[C@H]3CC[C@@H](C2)N3C(=O)c2sccc2C)cn1 (stereo partly drawn) | 663 |
| CN(C)c1ccc(C(=O)N2CCCC(COc3ccc(C(=O)NC4CC4)cc3)C2)cc1 (stereo not drawn) | 780 |
| Cc1ccc(NC(=O)C2CCCN2S(=O)(=O)c2cc3c(cc2Cl)NC(=O)CO3)cc1 (stereo not drawn) | 800 |
| COc1ccc(NC(=O)C(=O)c2cccn2C)cc1OC | 784 |
| CC(C)c1ccc(-c2noc(N3CCC(C(=O)N4CCCCCC4)CC3)n2)cc1 | 1180 |
| OC1(c2ccc(Cl)cc2)CCN(Cc2c[nH]c3ccccc23)CC1 | 736 |
| CCN(CC)S(=O)(=O)c1ccc2c(c1)N(CC(=O)NC1CCCC1)C(=O)C1CCCCN21 (stereo not drawn) | 927 |
| C=CCNC(=O)Cn1c2c(c(=O)n3nc(-c4ccc(C)cc4)nc13)CCC2 | 720 |
| CCOC(=O)c1c(S(=O)(=O)NCc2ccc3c(c2)OCO3)n[nH]c1CC | 718 |

| SMILES | RP-LC retention time [s] |
| --- | --- |
| CC(=O)N1CCCSc2ccc(S(=O)(=O)N3CCN(c4cc(Cl)ccc4C)CC3)cc21 | 1180 |
| Cc1ccc(C)c(CN2C[C@@H]3C(=O)N(C)C(=O)[C@@H]3C2)c1 | 611 |
| Cc1nc2ncnn2c(N2CCCC2)c1C | 648 |
| CN(CCNC(=O)C1CCCN(c2ncnc3c2nc2n3CCCCC2)C1)Cc1ccccc1 (stereo not drawn) | 623 |
| Cc1ccc(-n2nc3c(N4CCCC(C(=O)N5CCc6ccccc65)C4)nnc(C)c3c2C)cc1 (stereo not drawn) | 830 |
| Cc1cc2n(n1)CCCN2C(=O)CCC(=O)Nc1ccc(Br)cc1F | 735 |
| CCOc1nccnc1N1CCC(NC(=O)Cc2cccnc2)C1 (stereo not drawn) | 534 |
| CCN(CC)S(=O)(=O)c1ccc2c(c1)N(CC(=O)N1CCCCC1)C(=O)C1CCCCN21 (stereo not drawn) | 905 |
| O=C(NC1CC1)c1ccc2c(c1)CCCN2S(=O)(=O)c1ccccc1 | 804 |
| Cc1nc(-c2csc(S(=O)(=O)N3CCC(C(=O)NCc4ccc(Cl)cc4)CC3)c2)no1 | 926 |
| CCOC(=O)c1cc2c([nH]c1=O)CC(c1ccccc1)CC2=O (stereo not drawn) | 735 |
| CN(CC#N)C(=O)c1cc2c(Cl)ccc3c2n1CCO3 | 865 |
| Cc1ccc(NC(=O)C2CCN(S(=O)(=O)c3ccc4[nH]c(=O)sc4c3)CC2)cc1Cl | 904 |
| CC1=NS(=O)(=O)N(Cc2ccccc2)C=C1C(=O)OCc1ccc(Cl)cc1 | 1160 |
| CC(=O)N1c2ccc(S(=O)(=O)N3CCCCC3)cc2CC1C(=O)Nc1c(C)cc(C)cc1C (stereo not drawn) | 955 |
| CCc1nn(CC)c(=O)c2cc(S(=O)(=O)N3CCC(Cc4ccccc4)CC3)cn12 | 1140 |
| CCOC(=O)N1CCc2c(sc(NC(=O)C3CCCN(S(C)(=O)=O)C3)c2C#N)C1 (stereo not drawn) | 767 |
| COCCN1CC(CO)C2(CCN(Cc3cccc(Cl)c3)CC2)C1 (stereo not drawn) | 531 |

Now from value to compound:

| RP-LC retention time [s] | SMILES |
| --- | --- |
| 872 | CCC(=O)N1CCc2c(C(=O)N3CCN(c4ccccc4F)CC3)cccc21 |
| 1060 | CCOC(=O)C1CCN(C(=O)c2ccc(-c3nc4ccccc4n(CC(C)C)c3=O)cc2)CC1 |
| 791 | O=c1ccc(S(=O)(=O)N2CCOCC2)cn1Cc1cc(F)cc(F)c1 |
| 1240 | COC(=O)c1ccc(Cl)cc1NC(=O)N1CCN(C)c2ccccc21 |
| 701 | CCCOC(=O)c1cnc2nc(C)ccc2c1NCc1ccc(OC)c(OC)c1 |
| 734 | Clc1ccc(-c2ccc(CNCc3ccccn3)o2)c(Cl)c1 |
| 739 | CCOc1ccccc1CNC(=O)C1CCN(S(=O)(=O)c2cn(CC)cn2)CC1 |
| 928 | Cc1cc(C)n(-c2ccnc(NCc3ccc(Cl)cc3)n2)n1 |
| 1170 | CCOc1ccc(-c2noc(Cn3c(=O)n(C(C)CC)c(=O)c4ccccc43)n2)cc1 (stereo not drawn) |
| 695 | COc1cc(-c2ccnc3nc(Cc4ccc(F)cc4)nn23)cc(OC)c1OC |
| 611 | Cc1ccc2c(Nc3cccc(Br)c3)c(C(=O)N3CCOCC3)cnc2n1 |
| 1060 | Cc1ccc(-c2cnc(N3CCCC(C(=O)NCc4ccc5c(c4)OCO5)C3)nc2)cc1 (stereo not drawn) |
| 682 | O=C(NCCc1c[nH]c2ccccc12)c1cc(=O)[nH]c2ccccc12 |
| 775 | COCCN1C(=O)Cc2ccccc2C1C(=O)NCc1ccccc1Cl (stereo not drawn) |
| 1070 | Cc1ccc(C)c(CS(=O)(=O)NCCc2cn(CC(C)C)c3ncccc23)c1 |
| 792 | COC(=O)c1c(NCC(C)C)c2cccc(Cl)c2[nH]c1=O |

| RP-LC retention time [s] | SMILES |
| --- | --- |
| 865 | COCCCNC(=O)C1(C)Cn2nc(-c3ccccc3)cc2C(=O)N1Cc1ccc(OC)cc1 (stereo not drawn) |
| 722 | Cc1nnc(N2CCCC(C(=O)NCc3ccccc3F)C2)c2nn(-c3ccccc3)c(C)c12 (stereo not drawn) |
| 943 | C=CCN1C(=O)C(C)(C)COc2cc(NC(=O)c3cccc(OC)c3OC)ccc21 |
| 849 | O=C(O)c1cc(-c2ccccc2)nc2ccccc12 |
| 703 | Cc1nnc2c(=O)n(CC(=O)NCc3ccc(Cl)cc3)c3cccnc3n12 |
| 617 | COC(=O)Nc1nc(CC(=O)NCc2cn3ccccc3n2)cs1 |
| 822 | COC(=O)c1cc(OCC(=O)Nc2ccc(F)cc2F)c2cc(OC)ccc2n1 |
| 727 | CC(C)n1c(=O)c(NCCc2ccc(Cl)cc2)nc2ccncc21 |
| 834 | CC(C)Cn1cc(CCNC(=O)c2ccc(F)cc2F)c2cccnc21 |
| 767 | Cc1noc2nc(C)n(CC(=O)Nc3ccc(F)cc3F)c(=O)c12 |
| 922 | Cc1ccccc1CNC(=O)C1CCCN(c2ccc(=O)n(-c3cccc(Cl)c3)n2)C1 (stereo not drawn) |
| 662 | CCc1ccccc1NC(=O)Nc1ccc2nncn2c1 |
| 694 | CCn1cc(-c2ccc(Cl)cc2)cc1C(=O)NCCCN(C)C |
| 901 | Cc1ccc(-c2cn3ccn(-c4ccc(F)cc4)c(=O)c3n2)cc1C |
| 728 | CC(NC(=O)CCNc1c(-c2cccc(F)c2)nc2cnccn12)c1cccs1 (stereo not drawn) |
| 705 | COc1ccc(-c2nnc(CC(=O)NCC(C)C)o2)cc1 |
